Broadly, the IC50 is the point on the concentration scale where inhibition reaches its midpoint. A word on the melting point: it is the temperature of the solid-liquid transition.

22 compounds from patent publication US20020028938A1, “Prostaglandin endoperoxide H synthase biosynthesis inhibitors” (priority 1997, published 2002) can be followed below.

The target in data set [1] is T1, human amnionic whole cell cyclooxygenase-2 (WISH cells) (Homo sapiens, UniProt P35354).
T1 construct: endogenous in cells; host or cells: human amnionic WISH cells, induced with IL-1beta
T1 sequence (P35354 18-604): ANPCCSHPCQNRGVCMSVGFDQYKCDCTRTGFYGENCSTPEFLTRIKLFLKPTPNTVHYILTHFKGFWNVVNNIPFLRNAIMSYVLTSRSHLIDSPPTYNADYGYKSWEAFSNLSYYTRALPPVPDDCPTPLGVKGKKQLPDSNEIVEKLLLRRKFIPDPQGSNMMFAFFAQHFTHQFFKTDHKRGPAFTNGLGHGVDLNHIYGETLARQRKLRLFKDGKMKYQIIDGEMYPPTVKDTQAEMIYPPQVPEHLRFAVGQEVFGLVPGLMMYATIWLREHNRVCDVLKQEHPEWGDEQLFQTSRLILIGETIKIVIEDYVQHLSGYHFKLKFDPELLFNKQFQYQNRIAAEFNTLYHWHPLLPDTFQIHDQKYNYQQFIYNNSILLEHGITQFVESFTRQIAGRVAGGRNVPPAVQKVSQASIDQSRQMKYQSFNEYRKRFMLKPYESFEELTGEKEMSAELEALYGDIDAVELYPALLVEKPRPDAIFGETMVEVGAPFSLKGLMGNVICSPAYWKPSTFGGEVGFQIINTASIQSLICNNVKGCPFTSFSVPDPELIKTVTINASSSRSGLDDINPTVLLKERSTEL
The data set is described as follows: IL-1β induced PGE2 production in WISH cells. The following applies: for IC50: read-out: Wish IC50 (parenthetical value). The class given is cell-based. On the procedure: EIA reagents for prostaglandin determination were purchased from Perseptive Diagnostics, (Cambridge, Mass.). Prostaglandin E2 (PGE2) levels in lavage fluids were determined after the samples were dried under nitrogen and reconstituted with assay buffer. PGE2 levels in enzyme assays or cell culture media were measured against standards prepared in the same milieu. The immunoassays were conducted as recommended by the manufacturer. The EIA was conducted in 96 well microtiter plates (Nunc Roskilde, Denmark) and optical density was measured using a microplate reader (Vmax, Molecular Devices Corp., Menlo Park, Calif.).
Human amnionic WISH cells were grown to 80% confluence in 48 well plates. Following removal of the growth medium and two washings with Geys Balanced Salt Solutn, 5 ng IL-1β /ml (UBI, Lake Placid, N.Y.) was added to the cells with or without test compound in DMSO (0.01% v/v) in Neuman-Tytell Serumless Medium (GIBCO, Grand Island, N.Y.).

The target in data set [2] is T2, recombinant human Cox-2 (r-hu Cox-2) (Homo sapiens, UniProt P35354).
T2 construct: made in house; host or cells: baculovirus/Sf9 insect cells (microsomes)
T2 sequence (P35354 18-604): T1 sequence (P35354 18-604)
The data set is described as follows: Recombinant human PGHS-2 enzyme assay (RHUCX2). The data set is classed as biochemical. As to conditions: for IC50: read-out: RHUCX2 IC50 (parenthetical value). The method, boiled down:
(§1)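 PGE2 by EIA (optical density) → % inhibition vs control-group mean → IC50 from linear regression.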

The target in data set [3] is T3, recombinant human Cox-1 (r-hu Cox1) (Homo sapiens, UniProt P23219).
T3 construct: made in house; host or cells: baculovirus/Sf9 insect cells (microsomes)
The data set is described as follows: Recombinant human PGHS-1 enzyme assay (RHUCX1). The data set is classed as biochemical. As to conditions: read-out: RHUCX1 % Inh. at Dose. The method, boiled down: as §1

Where [4] appears, read: read-out: RHUCX2 % Inh. at Dose.

Molecules are shown by their SMILES.

T3 sequence (P23219 24-599): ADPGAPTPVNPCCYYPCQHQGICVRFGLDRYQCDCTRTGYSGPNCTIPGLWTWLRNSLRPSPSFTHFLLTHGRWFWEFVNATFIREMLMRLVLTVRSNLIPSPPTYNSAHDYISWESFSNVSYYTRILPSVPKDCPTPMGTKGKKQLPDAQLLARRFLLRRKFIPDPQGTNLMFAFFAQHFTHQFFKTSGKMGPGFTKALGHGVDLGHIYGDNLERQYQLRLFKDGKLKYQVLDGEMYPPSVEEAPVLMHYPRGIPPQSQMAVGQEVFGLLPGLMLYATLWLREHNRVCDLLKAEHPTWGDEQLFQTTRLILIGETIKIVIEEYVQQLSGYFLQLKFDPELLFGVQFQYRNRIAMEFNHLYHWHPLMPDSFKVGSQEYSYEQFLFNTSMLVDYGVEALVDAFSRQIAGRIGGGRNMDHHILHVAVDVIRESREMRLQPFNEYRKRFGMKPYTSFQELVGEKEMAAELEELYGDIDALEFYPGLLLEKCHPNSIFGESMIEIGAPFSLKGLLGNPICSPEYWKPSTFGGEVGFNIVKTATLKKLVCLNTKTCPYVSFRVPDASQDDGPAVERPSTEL

In turn, `CS(=O)(=O)c1ccc(-c2cnn(CC(F)(F)F)c(=O)c2OC2CCCC2)cc1` [Example 85, 2-(2,2,2-Trifluoroethyl)-4-cyclopentyloxy-5-[4-(methylsulfonyl)phenyl]-3(2H)-pyridazinone] came in with a melting point of 148 to 150 °C. For the same compound, the IC50 in data set [1] is 0.47 µM.
Turning to `CC(C)Nc1c(-c2ccc(S(C)(=O)=O)cc2)cnn(CC(F)(F)F)c1=O` [Example 86, 2-(2,2,2-Trifluoroethyl)-4-(2-propylamino)-5-[4-(methylsulfonyl)phenyl]-3(2H)-pyridazinone], in data set [1] (0.01 μM, read-out: Wish % Inhib. at Dose), the inhibition at 0.01 µM amounted to 47%. Besides, in data set [1] (1 μM, read-out: Wish % Inhib. at Dose), the inhibition at 1 µM was 52%.
For `NS(=O)(=O)c1ccc(-c2cnn(C3C=CCCC3)c(=O)c2-c2ccc(F)cc2)cc1` (stereo not drawn) [Example 126], the half-inhibitory concentration (IC50) in data set [1] is 0.05 µM.
Regarding `CS(=O)(=O)c1ccc(-c2cnn(-c3cccc(Cl)c3)c(=O)c2COc2ccc(F)cc2)cc1` [Example 207, 2-(3-Chlorophenyl)-4-(4-fluorophenoxmethyl)-5-[4-(methylsulfonyl)phenyl]-3(2H)-pyridazinone], in data set [2] (setting [4]), the inhibition at 0.1 µM was found to be 81% and the inhibition at 1 µM was found to be 97%. Moreover, the half-inhibitory concentration (IC50) in data set [1] is 0.068 µM.
For the compound `CS(=O)(=O)c1ccc(-c2cnn(Cc3ccccc3)c(=O)c2-c2ccsc2)cc1` [Example 317, 2-Benzyl-4-(3-thienyl)-5-[4-(methylsulfonyl)phenyl]-3(2H)-pyridazinone], the IC50 in data set [1] is 0.027 µM.
Same read-out and setting: the value for `COc1ccccc1-c1c(-c2ccc(S(C)(=O)=O)cc2)cnn(Cc2ccccc2)c1=O` [Example 324, 2-Benzyl-4-(2-methoxyphenyl)-5-[4-(methylsulfonyl)phenyl]-3(2H)-pyridazinone] was 0.047 µM; that for `COc1ccc(-c2c(-c3ccc(S(C)(=O)=O)cc3)cnn(Cc3ccccc3)c2=O)cc1F` [Example 326, 2-Benzyl-4-(3-fluoro-4-methoxyphenyl)-5-[4-(methylsulfonyl)phenyl]-3(2H)-pyridazinone] was 0.05 µM.
Consider `CC(C)CCOc1c(-c2ccc(S(N)(=O)=O)cc2)cnn(C(C)(C)C)c1=O` [Example 399], for which the “Wish % Inhib. at Dose (μM)” value was 39 @ 0.03% in data set [1] (0.03 μM) and 82 @ 0.1% in data set [1] (0.1 μM).
On to `Cc1cc(-c2c(-c3ccc(S(N)(=O)=O)cc3)cnn(-c3ccc(F)c(F)c3)c2=O)ccc1F` [Example 402, 2-(3,4-Difluorophenyl)-4-(4-fluoro-3-methylphenyl)-5-[4-(aminosulfonyl)phenyl]-3(2H)-pyridazinone], for which the melting point lay within 243 to 245 °C. Also, in data set [3], the inhibition at 1 µM was 89%. The concentration for half-maximal inhibition (IC50) in data set [2] is 0.221 µM.
In turn, `CS(=O)(=O)c1ccc(-c2cnn(-c3cccc(Cl)c3)c(=O)c2Oc2cccc(F)c2)cc1` [Example 411, 2-(3-Chlorophenyl)-4-(3-fluorophenoxy)-5-[4-(methylsulfonyl)phenyl]-3(2H)-pyridazinone] showed a melting point of 178 to 180 °C. Moreover, the inhibition at 1 µM in data set [3] is 81%. For the same compound, the inhibition at 10 µM in data set [3] (10 μM) was 96%. Moreover, in data set [2], the IC50 worked out at 0.009 µM.
As for `CC(C)CCCOc1c(-c2ccc(S(C)(=O)=O)cc2)cnn(-c2cccc(Cl)c2)c1=O` [Example 413], the melting point lay within 139 to 140 °C. Further, the inhibition at 100 µM in data set [3] was 0%. Besides, the half-maximal inhibitory concentration (IC50) in data set [2] was 0.11 µM.
The like results for `CC(C)CCCc1c(-c2ccc(S(C)(=O)=O)cc2)cnn(-c2ccc(F)cc2)c1=O` [Example 420, 2-(4-Fluorophenyl)-4-(4-methylpentyl)-5-[4-(methylsulfonyl)phenyl]-3(2H)-pyridazinone] were, in that order, 112 to 115 °C, 29% and 0.323 µM.
In the case of `CC(C)=CCOc1c(-c2ccc(S(C)(=O)=O)cc2)cnn(-c2cccc(Cl)c2)c1=O` [Example 423, 2-(3-Chlorophenyl)-4-(3-methyl-2-butenoxy)-5-[4-(methylsulfonyl)phenyl]-3(2H)-pyridazinone], the melting point was 113 to 115 °C. Besides, in data set [3], the inhibition at 100 µM is 0%. Besides, in data set [2] (setting [4]), the inhibition at 0.01 µM was determined as 36%, the inhibition at 0.1 µM was 68% and the inhibition at 1 µM came to 87%.
The compound `C=C(C)CCOc1c(-c2ccc(S(C)(=O)=O)cc2)cnn(-c2ccc(F)cc2)c1=O` [Example 425, 2-(4-Fluorophenyl)-4-(3-methyl-3-butenoxy)-5-[4-(methylsulfonyl)phenyl]-3(2H)-pyridazinone] displayed a melting point of 109 to 111 °C. Moreover, the inhibition at 100 µM in data set [3] turned out to be 12%. For the same compound, in data set [2] (setting [4]), the inhibition at 0.01 µM worked out at 31% and the inhibition at 0.1 µM is 69%.
With `CC(C)=CCCOc1c(-c2ccc(S(C)(=O)=O)cc2)cnn(-c2cccc(Cl)c2)c1=O` [Example 426, 2-(3-Chlorophenyl)-4-(4-methyl-3-pentenyloxy)-5-[4-(methylsulfonyl)phenyl]-3(2H)-pyridaznone], the melting point lay within 110 to 111 °C. Moreover, the inhibition at 100 µM in data set [3] is 1%. For the same compound, in data set [2], the IC50 was 0.057 µM.
The like results for `C=CCC(C)COc1c(-c2ccc(S(C)(=O)=O)cc2)cnn(-c2ccc(F)cc2)c1=O` (stereo not drawn) [Example 434, 2-(4-Fluorophenyl)-4-(2-methyl-4-pentenyl-1-oxy)-5-[4-(methylsulfonyl)phenyl]-3(2H)-pyridazinone] were, in that order, 106 to 107 °C, 0% and 0.081 µM.
The like results for `CC(C)CCCOc1c(-c2ccc(S(C)(=O)=O)cc2)cnn(-c2ccc(F)c(F)c2)c1=O` [Example 437, 2-(3,4-Difluorophenyl)-4-(4-methyl-1-pentyloxy)-5-[4-(methylsulfonyl)phenyl]-3(21)-pyridazinone] were, in that order, 98 to 99 °C, 16% and 0.124 µM.
The like results for `CC(C)CC(C)Oc1c(-c2ccc(S(C)(=O)=O)cc2)cnn(-c2ccc(F)c(F)c2)c1=O` (stereo not drawn) [Example 438] were, in that order, 132 to 133 °C, 0% and 0.127 µM.
As for `CS(=O)(=O)c1ccc(-c2cnn(-c3ccc(F)c(F)c3)c(=O)c2OCCC2C=CCC2)cc1` (stereo not drawn) [Example 440, 2-(3,4-Difluorophenyl)-4-(2-cyclopent-2-enyl-1-ethoxy)-5-[4-(methylsulfonyl)phenyl]-3(2H)-pyridazinone], the melting point is 126 to 127 °C. In addition, the inhibition at 100 µM in data set [3] is 20%. For the same compound, in data set [2] (setting [4]), the inhibition at 0.01 µM came to 22%, the inhibition at 0.1 µM was 59% and the inhibition at 1 µM came to 84%.
For `CON=C(Cn1ncc(-c2ccc(S(C)(=O)=O)cc2)c(-c2ccc(F)cc2)c1=O)c1ccccc1` [Example 443, 2-(2-Methoxyimino-2-phenylethyl)-4-(4-fluorophenyl)-5-[4-(methylsulfonyl)phenyl]-3(2H)-pyridazinone], the melting point is 95 to 99 °C. Also, in data set [3], the inhibition at 100 µM amounted to 35%. In addition, in data set [2] (setting [4]), the inhibition at 0.01 µM is 74% and the inhibition at 0.1 µM turned out to be 86%.
On to `CC(C)CCCc1c(-c2ccc(S(C)(=O)=O)cc2)cnn(-c2ccc(F)c(F)c2)c1=O` [Example 444, 2-(3,4-Difluorophenyl)-4-(4-methylpentyl)-5-[4-(methylsulfonyl)phenyl]-3(2H)-pyridazinone], for which the melting point is 111 to 113 °C. Also, the inhibition at 100 µM in data set [3] is 0%. Besides, in data set [2] (setting [4]), the inhibition at 0.1 µM is 62% and the inhibition at 1 µM is 83%. Moreover, in data set [2] (10 μM, read-out: RHUCX2 % Inh. at Dose), the inhibition at 10 µM turned out to be 14%.
Regarding `CC(C)CCOc1c(-c2ccc(S(C)(=O)=O)cc2)cnn(CC(F)(F)F)c1=O` [Example 447, 2-(2,2,2-Trifluoroethyl)-4-(3-methylbutoxy)-5-[4-(methylsulfonyl)phenyl]-3(2H)-pyridazinone], the melting point was in the range of 111 to 113 °C. The inhibition at 100 µM in data set [3] is 0%. Moreover, in data set [2] (setting [4]), the inhibition at 0.01 µM turned out to be 35%, the inhibition at 0.1 µM is 57% and the inhibition at 1 µM stood at 90%.
